Results as given in patent US20250092043A1, “Kinase Inhibitors and Degraders” (Incyte Corporation, priority 2023, published 2025).

Molecular target: T1, JAK2 (Homo sapiens, UniProt O60674, V617F)
T1 construct: their effect on JAK2 protein degradation in SET2 cells; host or cells: SET2 cells (human essential thrombocythemia)
Test: Western blot quantitation of JAK2 degradation in SET2 cells
Type: cell-based
Conditions: 8 hours treatment, western blot densitometry vs. DMSO vehicle
Description: Example E. Western Blot Analysis of JAK2 Dependent SET2 Cells Treated with Compounds of the Present Disclosure
SET2 cells (DSMZ, catalog number ACC 608) are isolated from a person with human essential thrombocythemia and carry the JAK2 V617F mutation.
SET2 cells were cultured in RPMI culture medium (Gibco, catalog number 11875085) supplemented with 1% penicillin-streptomycin-glutamine (Thermo Fisher Scientific, catalog number 10378016) and 20% fetal bovine serum (Gibco, catalog number 10438034). Cultured cells were maintained at 37° C., 5% CO2 in the incubator.
Approximately 1,000,000 cells/well were added in 6-well plate containing 1.5 ml culture media with specified concentrations of compounds of the present disclosure or DMSO control. Cells were treated with concentrations of 10 uM, 5 uM, 1 uM, and 0.5 uM. Proteasome inhibitor MG-132 (Cell signaling, catalog number 2194) was added at 20 uM to an additional 10 uM compound treatment. The treatment period was 8 hours. After 8 hours, cells were collected in 1.5 mL microcentrifuge tubes. Tubes were centrifuged at 1500 rpm for 5 min. Supernatant was aspirated and samples were washed with 1 mL of cold PBS. The samples were centrifuged again at 1500 rpm for 5 min, supernatant was aspirated. The sample pellets were lysed using 150 μL of 1× lysing buffer (Cell Signaling Technologies—catalog number 9803S) supplemented with 1× Halt™ Protease and Phosphatase Inhibitor Cocktail (Thermo Fisher Scientific—catalog number 78447). Using Pierce™ BCA Protein Assay Kit (Thermo Fisher Scientific—catalog number 23225), protein concentration of the samples were quantitated. After normalizing sample concentration to approximately 20 ug/well, samples were loaded onto 4-12% Tris-glycine gels. Gels were transferred to nitrocellulose membranes using iBlot 2 Dry Blotting System and iBlot™ 2 Transfer Stacks, nitrocellulose (Thermo Fisher Scientific—catalog number IB23001). Following transfer, membranes were blocked with StartingBlock (Thermo Fisher Scientific—catalog number 37543). After 1 hour of blocking membranes, they were probed for JAK2, pSTAT5, STAT5, CRBN, and GAPDH (Cell Signaling—catalog numbers 3230, 4322, 25656, 71810, and 5174 respectively).
Compounds of the present disclosure were screened at various concentrations to determine their effect on JAK2 protein degradation in SET2 cells, using methods as described above. DMSO was used as the vehicle control with no PROTAC® added. Co-administration of 20 μM of the proteasome inhibitor MG-132 with the PROTAC® compound at its highest concentration (i.e., 5 or 10 μM) tested was conducted to support the hypothesis that the degradation was driven by the ubiquitin-proteosome system (UPS). Degradation was evaluated by western blot densitometry quantitation using the FluorChem M instrument software to analyze the intensity of the JAK2 band signal at various concentrations of PROTAC® compound vs. the JAK2 band signal of the DMSO vehicle. It is noted that ˜82% of JAK2 exists as the V617F mutant, with the remaining 18% of JAK2 being WT. Therefore, if the V617F mutant JAK2 is selectively degraded over the WT, the maximum degradation is ˜80%. Degradation was graded as A: […]; B: ≥40% to <60% degradation; C: ≥20% to <40% degradation, D: <20% to ≥10%; E<10%. ** refers to degradation at 0.5 μM.

T1 sequence (O60674 whole entry V617F): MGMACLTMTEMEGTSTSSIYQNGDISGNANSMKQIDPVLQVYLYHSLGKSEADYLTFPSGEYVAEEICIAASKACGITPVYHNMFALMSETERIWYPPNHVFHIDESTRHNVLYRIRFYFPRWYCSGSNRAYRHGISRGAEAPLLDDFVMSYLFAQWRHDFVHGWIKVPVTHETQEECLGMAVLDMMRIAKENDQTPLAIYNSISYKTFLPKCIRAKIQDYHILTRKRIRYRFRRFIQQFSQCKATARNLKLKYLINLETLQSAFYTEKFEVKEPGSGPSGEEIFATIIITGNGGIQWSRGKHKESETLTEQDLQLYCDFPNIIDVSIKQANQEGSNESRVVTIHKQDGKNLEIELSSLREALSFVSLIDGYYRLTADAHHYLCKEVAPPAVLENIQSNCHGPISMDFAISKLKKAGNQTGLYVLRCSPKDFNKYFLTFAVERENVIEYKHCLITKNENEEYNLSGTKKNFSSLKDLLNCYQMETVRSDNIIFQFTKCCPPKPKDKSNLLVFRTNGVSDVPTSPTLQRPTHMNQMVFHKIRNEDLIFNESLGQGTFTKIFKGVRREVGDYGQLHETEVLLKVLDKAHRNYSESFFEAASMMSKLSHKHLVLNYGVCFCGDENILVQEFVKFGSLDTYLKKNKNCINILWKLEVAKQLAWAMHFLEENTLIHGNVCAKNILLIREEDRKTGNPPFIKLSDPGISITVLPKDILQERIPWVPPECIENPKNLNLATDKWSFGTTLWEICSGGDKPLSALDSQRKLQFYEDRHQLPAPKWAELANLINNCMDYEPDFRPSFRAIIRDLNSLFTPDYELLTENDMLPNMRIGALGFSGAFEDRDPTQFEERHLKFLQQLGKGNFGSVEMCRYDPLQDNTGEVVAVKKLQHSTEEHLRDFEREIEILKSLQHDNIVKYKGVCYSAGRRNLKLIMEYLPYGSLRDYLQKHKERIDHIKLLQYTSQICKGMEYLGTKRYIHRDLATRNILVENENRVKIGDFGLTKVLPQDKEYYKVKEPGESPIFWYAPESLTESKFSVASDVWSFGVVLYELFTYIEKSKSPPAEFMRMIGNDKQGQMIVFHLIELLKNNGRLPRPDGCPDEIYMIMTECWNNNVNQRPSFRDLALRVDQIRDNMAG

SMILES: COC(=O)N[C@@H]1CC[C@@H](n2c(=O)n(C)c3cnc4[nH]c(-c5ccc(C(=O)N6CCC(CN7CCN(c8ccc9c(c8)CN(C8CCC(=O)NC8=O)C9=O)CC7)CC6)cc5)c(-c5ccc6c(cnn6C(C)C)c5)c4c32)C1 (stereo partly drawn) [Example 35, methyl ((1R,3R)-3-(7-(4-(4-((4-(2-(2,6-dioxopiperidin-3-yl)-1-oxoisoindolin-5-yl)piperazin-1-yl)methyl)piperidine-1-carbonyl)phenyl)-8-(1-isopropyl-1H-indazol-5-yl)-3-methyl-2-oxo-3,6-dihydroimidazo[4,5-d]pyrrolo[2,3-b]pyridin-1(2H)-yl)cyclopentyl) carbamate]
- JAK2 % Degradation in SET2 (10 μM compound): A (A: ≥600% degradation)

SMILES: COC(=O)N[C@@H]1CC[C@@H](n2c(=O)n(C)c3cnc4[nH]c(-c5ccc(C(=O)N6CCC(CN7CCN(c8ccc9c(c8)CN(C8CCC(=O)NC8=O)C9=O)CC7)CC6)c(F)c5)c(-c5ccc6c(cnn6C(C)C)c5)c4c32)C1 (stereo partly drawn) [Example 36, methyl ((1R,3R)-3-(7-(4-(4-((4-(2-(2,6-dioxopiperidin-3-yl)-1-oxoisoindolin-5-yl)piperazin-1-yl)methyl)piperidine-1-carbonyl)-3-fluorophenyl)-8-(1-isopropyl-1H-indazol-5-yl)-3-methyl-2-oxo-3,6-dihydroimidazo[4,5-d]pyrrolo[2,3-b]pyridin-1(2H)-yl)cyclopentyl) carbamate]
- JAK2 % Degradation in SET2 (10 μM compound): A (A: ≥600% degradation)

SMILES: COC(=O)N[C@@H]1CC[C@@H](n2c(=O)n(C)c3cnc4[nH]c(-c5ccc(C(=O)N6CCC(C(=O)N7CCN(c8cccc9c8C(=O)N(C8CCC(=O)NC8=O)C9=O)CC7)CC6)cc5)c(-c5ccc6c(cnn6C(C)C)c5)c4c32)C1 (stereo partly drawn) [Example 37, methyl ((1R,3R)-3-(7-(4-(4-(4-(2-(2,6-dioxopiperidin-3-yl)-1,3-dioxoisoindolin-4-yl)piperazine-1-carbonyl)piperidine-1-carbonyl)phenyl)-8-(1-isopropyl-1H-indazol-5-yl)-3-methyl-2-oxo-3,6-dihydroimidazo[4,5-d]pyrrolo[2,3-b]pyridin-1(2H)-yl)cyclopentyl) carbamate]
- JAK2 % Degradation in SET2 (5 μM compound): C (C: ≥20% to <40% degradation)

SMILES: COC(=O)N[C@@H]1CC[C@@H](n2c(=O)n(C)c3cnc4[nH]c(-c5ccc(C(=O)N6CCN(CC7CCN(c8cccc9c8C(=O)N(C8CCC(=O)NC8=O)C9=O)CC7)CC6)cc5)c(-c5ccc6c(cnn6C(C)C)c5)c4c32)C1 (stereo partly drawn) [Example 38, methyl ((1R,3R)-3-(7-(4-(4-((1-(2-(2,6-dioxopiperidin-3-yl)-1,3-dioxoisoindolin-4-yl)piperidin-4-yl)methyl)piperazine-1-carbonyl)phenyl)-8-(1-isopropyl-1H-indazol-5-yl)-3-methyl-2-oxo-3,6-dihydroimidazo[4,5-d]pyrrolo[2,3-b]pyridin-1(2H)-yl)cyclopentyl) carbamate]
- JAK2 % Degradation in SET2 (5 μM compound): A (A: ≥600% degradation)

SMILES: COC(=O)N[C@@H]1CC[C@@H](n2c(=O)n(C)c3cnc4[nH]c(-c5cnn(CC(=O)N6CCC(CN7CCN(c8cccc9c8C(=O)N(C8CCC(=O)NC8=O)C9=O)CC7)CC6)c5)c(-c5ccc6c(cnn6C(C)C)c5)c4c32)C1 (stereo partly drawn) [Example 40, methyl ((1R,3R)-3-(7-(1-(2-(4-((4-(2-(2,6-dioxopiperidin-3-yl)-1,3-dioxoisoindolin-4-yl)piperazin-1-yl)methyl)piperidin-1-yl)-2-oxoethyl)-1H-pyrazol-4-yl)-8-(1-isopropyl-1H-indazol-5-yl)-3-methyl-2-oxo-3,6-dihydroimidazo[4,5-d]pyrrolo[2,3-b]pyridin-1(2H)-yl)cyclopentyl) carbamate]
- JAK2 % Degradation in SET2 (5 μM compound): C (C: ≥20% to <40% degradation)
